Experimental data: the NIST ThermoML archive (doi:10.1021/acs.jced.8b00975)
± gives the expanded uncertainty stated by the source.

Test: xn = mol fraction of the nth substance listed
Settings: Liquid, Vibrating tube method

C=C(C)C(=O)OCCN(C)C [2-(dimethylamino)ethyl methylpropenoate] + CO
mass density [kg/m3]
Settings | 100 kPa | 5000 kPa | 10000 kPa | 15000 kPa | 20000 kPa | 25000 kPa | 30000 kPa | 35000 kPa
293.15 K, x1 = 0.0227 | 806.56 ± 0.51 | 811.24 ± 0.52 | 815.62 ± 0.53 | 819.73 ± 0.54 | 823.64 ± 0.55 | 827.39 ± 0.56 | 831.04 ± 0.57 | 834.64 ± 0.58
293.15 K, x1 = 0.0807 | 837.79 ± 0.51 | 842.2 ± 0.52 | 846.3 ± 0.52 | 850.16 ± 0.53 | 853.82 ± 0.54 | 857.37 ± 0.54 | 860.86 ± 0.55 | 864.36 ± 0.56
293.15 K, x1 = 0.1196 | 853.33 ± 0.51 | 857.5 ± 0.51 | 861.44 ± 0.52 | 865.18 ± 0.52 | 868.77 ± 0.53 | 872.24 ± 0.54 | 875.62 ± 0.54 | 878.97 ± 0.55
293.15 K, x1 = 0.2003 | 877.11 ± 0.51 | 881.14 ± 0.51 | 884.9 ± 0.52 | 888.45 ± 0.52 | 891.85 ± 0.53 | 895.18 ± 0.53 | 898.5 ± 0.53 | 901.87 ± 0.54
293.15 K, x1 = 0.3189 | 898.63 ± 0.51 | 902.57 ± 0.51 | 906.24 ± 0.52 | 909.71 ± 0.52 | 913.03 ± 0.52 | 916.26 ± 0.53 | 919.46 ± 0.53 | 922.7 ± 0.53
293.15 K, x1 = 0.4003 | 908.22 ± 0.51 | 912.08 ± 0.51 | 915.72 ± 0.52 | 919.18 ± 0.52 | 922.49 ± 0.52 | 925.73 ± 0.53 | 928.92 ± 0.53 | 932.12 ± 0.53
293.15 K, x1 = 0.4502 | 912.84 ± 0.51 | 916.76 ± 0.51 | 920.42 ± 0.52 | 923.87 ± 0.52 | 927.16 ± 0.52 | 930.33 ± 0.53 | 933.44 ± 0.53 | 936.53 ± 0.53
293.15 K, x1 = 0.4914 | 916.03 ± 0.51 | 919.88 ± 0.51 | 923.47 ± 0.52 | 926.87 ± 0.52 | 930.13 ± 0.52 | 933.31 ± 0.53 | 936.47 ± 0.53 | 939.66 ± 0.53
293.15 K, x1 = 0.5451 | 919.46 ± 0.51 | 923.35 ± 0.52 | 926.95 ± 0.52 | 930.34 ± 0.52 | 933.58 ± 0.52 | 936.74 ± 0.53 | 939.88 ± 0.53 | 943.07 ± 0.53
293.15 K, x1 = 0.6446 | 924.39 ± 0.52 | 928.12 ± 0.52 | 931.65 ± 0.52 | 935.02 ± 0.53 | 938.27 ± 0.53 | 941.45 ± 0.53 | 944.62 ± 0.53 | 947.8 ± 0.53
293.15 K, x1 = 0.6899 | 926.07 ± 0.52 | 929.92 ± 0.52 | 933.48 ± 0.52 | 936.82 ± 0.53 | 940.01 ± 0.53 | 943.12 ± 0.53 | 946.23 ± 0.53 | 949.4 ± 0.54
293.15 K, x1 = 0.8265 | 930.1 ± 0.53 | 933.94 ± 0.53 | 937.53 ± 0.53 | 940.91 ± 0.54 | 944.15 ± 0.54 | 947.29 ± 0.54 | 950.41 ± 0.54 | 953.56 ± 0.55
293.15 K, x1 = 0.8957 | 931.56 ± 0.53 | 935.27 ± 0.54 | 938.82 ± 0.54 | 942.24 ± 0.54 | 945.55 ± 0.55 | 948.77 ± 0.55 | 951.92 ± 0.55 | 955.03 ± 0.55
293.15 K, x1 = 0.9213 | 931.89 ± 0.53 | 935.76 ± 0.54 | 939.37 ± 0.54 | 942.76 ± 0.55 | 946.01 ± 0.55 | 949.17 ± 0.55 | 952.32 ± 0.55 | 955.5 ± 0.56
293.15 K, x1 = 0.977 | 932.63 ± 0.54 | 936.53 ± 0.54 | 940.13 ± 0.55 | 943.52 ± 0.55 | 946.76 ± 0.55 | 949.92 ± 0.56 | 953.08 ± 0.56 | 956.32 ± 0.56
303.15 K, x1 = 0.0301 | 802.01 ± 0.51 | 806.85 ± 0.52 | 811.37 ± 0.53 | 815.62 ± 0.54 | 819.63 ± 0.55 | 823.45 ± 0.56 | 827.13 ± 0.57 | 830.7 ± 0.58
303.15 K, x1 = 0.0604 | 818.68 ± 0.51 | 823.37 ± 0.52 | 827.77 ± 0.52 | 831.91 ± 0.53 | 835.85 ± 0.54 | 839.61 ± 0.55 | 843.23 ± 0.56 | 846.75 ± 0.57
303.15 K, x1 = 0.1003 | 836.41 ± 0.51 | 840.87 ± 0.52 | 845.1 ± 0.52 | 849.12 ± 0.53 | 852.97 ± 0.54 | 856.67 ± 0.54 | 860.27 ± 0.55 | 863.78 ± 0.56
303.15 K, x1 = 0.1894 | 864.5 ± 0.51 | 868.73 ± 0.51 | 872.74 ± 0.52 | 876.58 ± 0.52 | 880.26 ± 0.53 | 883.85 ± 0.53 | 887.36 ± 0.54 | 890.85 ± 0.55
303.15 K, x1 = 0.3009 | 886 ± 0.51 | 890.03 ± 0.51 | 893.92 ± 0.52 | 897.69 ± 0.52 | 901.34 ± 0.53 | 904.9 ± 0.53 | 908.38 ± 0.53 | 911.78 ± 0.54
303.15 K, x1 = 0.4011 | 898.17 ± 0.51 | 902.15 ± 0.51 | 905.98 ± 0.52 | 909.67 ± 0.52 | 913.27 ± 0.53 | 916.78 ± 0.53 | 920.23 ± 0.53 | 923.64 ± 0.53
303.15 K, x1 = 0.4497 | 902.64 ± 0.51 | 906.61 ± 0.52 | 910.42 ± 0.52 | 914.09 ± 0.52 | 917.65 ± 0.52 | 921.14 ± 0.53 | 924.58 ± 0.53 | 928.02 ± 0.53
303.15 K, x1 = 0.5004 | 906.39 ± 0.51 | 910.32 ± 0.52 | 914.1 ± 0.52 | 917.76 ± 0.52 | 921.33 ± 0.53 | 924.83 ± 0.53 | 928.29 ± 0.53 | 931.73 ± 0.53
303.15 K, x1 = 0.5484 | 909.57 ± 0.51 | 913.52 ± 0.52 | 917.31 ± 0.52 | 920.96 ± 0.52 | 924.51 ± 0.53 | 928 ± 0.53 | 931.44 ± 0.53 | 934.88 ± 0.53
303.15 K, x1 = 0.6026 | 912.38 ± 0.52 | 916.33 ± 0.52 | 920.1 ± 0.52 | 923.74 ± 0.53 | 927.27 ± 0.53 | 930.75 ± 0.53 | 934.2 ± 0.53 | 937.68 ± 0.54
303.15 K, x1 = 0.701 | 916.45 ± 0.52 | 920.39 ± 0.52 | 924.17 ± 0.53 | 927.81 ± 0.53 | 931.36 ± 0.53 | 934.84 ± 0.54 | 938.28 ± 0.54 | 941.72 ± 0.54
303.15 K, x1 = 0.7881 | 919.15 ± 0.52 | 923.04 ± 0.53 | 926.8 ± 0.53 | 930.44 ± 0.54 | 934.01 ± 0.54 | 937.52 ± 0.54 | 941.01 ± 0.55 | 944.48 ± 0.55
303.15 K, x1 = 0.897 | 921.41 ± 0.53 | 925.26 ± 0.54 | 929.01 ± 0.54 | 932.67 ± 0.55 | 936.24 ± 0.55 | 939.76 ± 0.55 | 943.23 ± 0.56 | 946.67 ± 0.56
303.15 K, x1 = 0.9286 | 922.08 ± 0.54 | 926.03 ± 0.54 | 929.81 ± 0.54 | 933.47 ± 0.55 | 937.03 ± 0.55 | 940.52 ± 0.56 | 943.99 ± 0.56 | 947.48 ± 0.56
303.15 K, x1 = 0.961 | 922.67 ± 0.54 | 926.57 ± 0.54 | 930.33 ± 0.55 | 933.98 ± 0.55 | 937.54 ± 0.56 | 941.04 ± 0.56 | 944.51 ± 0.56 | 947.99 ± 0.56
313.15 K, x1 = 0.0303 | 792.52 ± 0.51 | 797.34 ± 0.52 | 802.01 ± 0.53 | 806.47 ± 0.54 | 810.73 ± 0.55 | 814.85 ± 0.56 | 818.84 ± 0.58 | 822.75 ± 0.59
313.15 K, x1 = 0.0601 | 808.67 ± 0.51 | 813.36 ± 0.52 | 817.9 ± 0.53 | 822.24 ± 0.54 | 826.41 ± 0.55 | 830.42 ± 0.56 | 834.31 ± 0.57 | 838.11 ± 0.58
313.15 K, x1 = 0.1002 | 826.53 ± 0.51 | 831.11 ± 0.52 | 835.57 ± 0.52 | 839.84 ± 0.53 | 843.93 ± 0.54 | 847.86 ± 0.55 | 851.66 ± 0.56 | 855.32 ± 0.57
313.15 K, x1 = 0.2005 | 857.05 ± 0.51 | 861.4 ± 0.52 | 865.62 ± 0.52 | 869.66 ± 0.53 | 873.55 ± 0.53 | 877.31 ± 0.54 | 880.98 ± 0.54 | 884.59 ± 0.55
313.15 K, x1 = 0.3009 | 876.08 ± 0.51 | 880.25 ± 0.52 | 884.34 ± 0.52 | 888.29 ± 0.52 | 892.1 ± 0.53 | 895.78 ± 0.53 | 899.34 ± 0.54 | 902.8 ± 0.54
313.15 K, x1 = 0.4008 | 888.55 ± 0.51 | 892.6 ± 0.52 | 896.62 ± 0.52 | 900.51 ± 0.52 | 904.28 ± 0.53 | 907.92 ± 0.53 | 911.43 ± 0.54 | 914.81 ± 0.54
313.15 K, x1 = 0.4516 | 893.1 ± 0.51 | 897.1 ± 0.52 | 901.09 ± 0.52 | 904.98 ± 0.52 | 908.76 ± 0.53 | 912.41 ± 0.53 | 915.91 ± 0.54 | 919.27 ± 0.54
313.15 K, x1 = 0.49 | 896.14 ± 0.51 | 900.12 ± 0.52 | 904.09 ± 0.52 | 907.97 ± 0.52 | 911.73 ± 0.53 | 915.36 ± 0.53 | 918.87 ± 0.54 | 922.22 ± 0.54
313.15 K, x1 = 0.552 | 900.13 ± 0.51 | 904.12 ± 0.52 | 908.1 ± 0.52 | 911.97 ± 0.53 | 915.72 ± 0.53 | 919.34 ± 0.53 | 922.83 ± 0.54 | 926.18 ± 0.54
313.15 K, x1 = 0.5881 | 902.29 ± 0.52 | 906.26 ± 0.52 | 910.2 ± 0.52 | 914.04 ± 0.53 | 917.76 ± 0.53 | 921.35 ± 0.53 | 924.82 ± 0.54 | 928.16 ± 0.54
313.15 K, x1 = 0.7048 | 907.14 ± 0.52 | 911.12 ± 0.52 | 915.08 ± 0.53 | 918.92 ± 0.53 | 922.65 ± 0.54 | 926.25 ± 0.54 | 929.72 ± 0.54 | 933.06 ± 0.55
313.15 K, x1 = 0.8042 | 910.23 ± 0.53 | 914.21 ± 0.53 | 918.18 ± 0.54 | 922.04 ± 0.54 | 925.78 ± 0.54 | 929.4 ± 0.55 | 932.87 ± 0.55 | 936.18 ± 0.55
313.15 K, x1 = 0.8998 | 912.3 ± 0.53 | 916.37 ± 0.54 | 920.38 ± 0.54 | 924.25 ± 0.55 | 927.99 ± 0.55 | 931.6 ± 0.56 | 935.1 ± 0.56 | 938.49 ± 0.56
313.15 K, x1 = 0.9373 | 913.06 ± 0.54 | 917.05 ± 0.54 | 921 ± 0.55 | 924.83 ± 0.55 | 928.56 ± 0.56 | 932.18 ± 0.56 | 935.71 ± 0.56 | 939.17 ± 0.57
313.15 K, x1 = 0.9651 | 913.5 ± 0.54 | 917.5 ± 0.54 | 921.47 ± 0.55 | 925.34 ± 0.55 | 929.11 ± 0.56 | 932.78 ± 0.56 | 936.35 ± 0.57 | 939.83 ± 0.57
